Laboratory results from ChEMBL document CHEMBL4425100, “Design, Synthesis, and Evaluation of in Vitro and in Vivo Anticancer Activity of 4-Substituted Coumarins: A Novel Class of Potent Tubulin Polymerization Inhibitors” (J Med Chem, 2016).
Counter-ions that a name gives are not always drawn. Blank lines part the entries; values can stand above or below the compound they belong to. Activity calls are given as the source filed them. No cut-off for these calls is given here.

Tests used:
[1] = Solubility of the compound in […] ethanol/[…] Tween-80 at 1 mg; format: physicochemical
NCI/ADR-RES [2] = experiment: Cytotoxicity against P-gp overexpressing human MCF7/ADR cells assessed as reduction in cell growth after 24 hrs by MTT assay; format: functional, cell-based
NCI/ADR-RES [3] = experiment: Antitumor activity against P-gp overexpressing human MCF7/ADR cells xenografted in mouse assessed as tumor growth inhibition at 4 mg/kg, iv qd administered every 2 days measured during compound dosing; format: functional; details: 48 h, read-out: TGI
[4] = Toxicity in mouse xenografted with P-gp overexpressing human MCF7/ADR cells assessed as body weight loss at 4 mg/kg, iv qd administered every 2 days measured during compound dosing; format: organism-based; details: in vivo, 48 h
Tubulin (Homo sapiens) [5] = biological target: T1, Tubulin (Homo sapiens) (UniProt P68371+Q9H4B7+P0DPH7+P68366+Q13509+Q71U36+P04350+Q3ZCM7+P07437+P68363+Q9BQE3+Q6PEY2+Q13885+Q9BVA1+Q9BUF5); experiment: Binding affinity to tubulin in human HepG2 cells assessed as inhibition of microtubule network formation in cytosol at 100 nM after 16 to 24 hrs by DAPI staining-based immunofluorescence microscopy; format: cell-based
Tubulin (Homo sapiens) [6] = biological target: T1, Tubulin (Homo sapiens); experiment: Binding affinity to tubulin in human HepG2 cells assessed as induction of abnormal chromosomal aggregation at 100 nM after 16 to 24 hrs by DAPI staining-based immunofluorescence microscopy; format: cell-based
SK-OV-3 = experiment: Antiproliferative activity against human SKOV3 cells after 24 hrs by MTT assay; format: functional, cell-based; details: SK-OV-3, 24 h
HCT-116 = experiment: Antiproliferative activity against human HCT116 cells after 24 hrs by MTT assay; format: functional, cell-based; details: HCT-116, 24 h
HepG2 = experiment: cells; details: Homo sapiens, HepG2, 24 h
Description: Antiproliferative activity against human HepG2 cells after 24 hrs by MTT assay

A2780/Taxol [7] = experiment: Antitumor activity against beta-tubulin 3 overexpressing human A2780T cells xenografted in mouse assessed as tumor growth inhibition at 30 mg/kg, iv qd administered once a week; format: functional; details: read-out: TGI
[8] = Toxicity in mouse xenografted with human MCF7 cells assessed as body weight loss at 5 mg/kg, iv qd administered every 2 days measured during compound dosing; format: organism-based; details: in vivo, 48 h
[9] = Toxicity in mouse xenografted with beta-tubulin 3 overexpressing human A2780T cells assessed as body weight loss at 30 mg/kg, iv qd administered once a week; format: organism-based; details: in vivo
Tubulin (Homo sapiens) [10] = biological target: T1, Tubulin (Homo sapiens); experiment: Binding affinity to microtubule in human HepG2 cells assessed as bundling of microtubule fibers near nucleus at 300 nM after 24 hrs by immunofluorescence staining-based confocal microscopy; format: cell-based
HCT-8 [11] = experiment: Cytotoxicity against vinblastine resistant/P-gp overexpressing human HCT8 cells assessed as reduction in cell growth after 24 hrs by MTT assay; format: functional, cell-based; details: HCT-8, 24 h
[12] = Toxicity in mouse xenografted with human MCF7 cells assessed as body weight loss at 24 mg/kg, iv qd administered once a week; format: organism-based; details: in vivo
[13] = Toxicity in mouse xenografted with beta-tubulin 3 overexpressing human A2780T cells assessed as abnormal behavior at 30 mg/kg, iv qd administered once a week; format: organism-based; details: in vivo
A2780/Taxol [14] = experiment: Cytotoxicity against beta-tubulin 3 overexpressing human A2780T cells assessed as reduction in cell growth after 24 hrs by MTT assay; format: functional, cell-based
MCF7 [15] = experiment: Antitumor activity against human MCF7 cells xenografted in mouse assessed as tumor growth inhibition at 5 mg/kg, iv qd administered every 2 days measured during compound dosing; format: functional; details: 48 h, read-out: TGI
[16] = Toxicity in mouse allografted with mouse C26 cells assessed as mortality at 2.5 to 5 mg/kg, iv qd administered every 2 days measured daily during compound dosing; format: organism-based; details: in vivo, 48 h
Tubulin (Sus scrofa) [17] = biological target: T2, Tubulin (Sus scrofa) (UniProt P02554+P02550); experiment: Inhibition of porcine brain tubulin polymerization at 10 uM preincubated for 5 mins followed by GTP addition measured every 2 mins by spectrophotometry
T2 sequence (P02550 whole entry, looked up): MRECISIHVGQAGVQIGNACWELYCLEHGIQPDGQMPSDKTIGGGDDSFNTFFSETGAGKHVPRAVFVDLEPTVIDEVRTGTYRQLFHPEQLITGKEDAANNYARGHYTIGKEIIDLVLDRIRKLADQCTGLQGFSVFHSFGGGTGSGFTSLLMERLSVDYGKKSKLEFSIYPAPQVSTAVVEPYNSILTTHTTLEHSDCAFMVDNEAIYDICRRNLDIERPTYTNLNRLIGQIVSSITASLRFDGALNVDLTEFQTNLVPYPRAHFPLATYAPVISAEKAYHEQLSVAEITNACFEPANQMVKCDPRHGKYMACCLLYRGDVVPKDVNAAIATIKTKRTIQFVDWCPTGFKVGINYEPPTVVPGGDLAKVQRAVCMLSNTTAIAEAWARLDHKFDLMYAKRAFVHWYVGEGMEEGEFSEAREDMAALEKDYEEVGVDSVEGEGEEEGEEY
T2 sequence (P02554 whole entry, looked up): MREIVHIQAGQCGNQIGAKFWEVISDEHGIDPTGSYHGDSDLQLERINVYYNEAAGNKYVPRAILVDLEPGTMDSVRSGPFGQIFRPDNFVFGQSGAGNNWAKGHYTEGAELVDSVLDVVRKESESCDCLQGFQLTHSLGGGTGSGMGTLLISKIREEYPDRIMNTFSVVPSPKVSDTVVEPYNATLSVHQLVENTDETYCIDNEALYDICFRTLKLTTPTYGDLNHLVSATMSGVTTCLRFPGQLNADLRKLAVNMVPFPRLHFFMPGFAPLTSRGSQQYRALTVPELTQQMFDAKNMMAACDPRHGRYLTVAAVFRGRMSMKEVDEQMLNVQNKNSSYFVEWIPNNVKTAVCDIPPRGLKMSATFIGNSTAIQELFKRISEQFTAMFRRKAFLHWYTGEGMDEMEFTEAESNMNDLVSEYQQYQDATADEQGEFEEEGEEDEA

[18] = Toxicity in mouse allografted with mouse C26 cells assessed as body weight loss at 2.5 to 5 mg/kg, iv qd administered every 2 days measured daily during compound dosing; format: organism-based; details: in vivo, 48 h
[19] = Toxicity in mouse xenografted with human H460 cells assessed as body weight loss at 2.5 to 5 mg/kg, iv qd administered every 2 days measured daily during compound dosing; format: organism-based; details: in vivo, 48 h
[20] = Toxicity in mouse xenografted with human H460 cells assessed as mortality at 2.5 to 5 mg/kg, iv qd administered every 2 days measured daily during compound dosing; format: organism-based; details: in vivo, 48 h
HCT-8 [21] = experiment: Antiproliferative activity against human HCT8 cells after 24 hrs by MTT assay; format: functional, cell-based; details: HCT-8, 24 h
MCF7 [22] = experiment: cells; details: Homo sapiens, MCF7, 24 h
Description: Antiproliferative activity against human MCF7 cells after 24 hrs by MTT assay

[23] = biological target: Tubulin beta (Homo sapiens) (UniProt P68371+Q9H4B7+Q13509+P04350+Q3ZCM7+P07437+Q13885+Q9BVA1+Q9BUF5+A6NNZ2); experiment: Competitive binding affinity to beta-tubulin in human HepG2 cells assessed as disappearance of EBI-protein adducts preincubated for 2 hrs followed by EBI addition measured after […] by Western blot analysis; format: cell-based
Tubulin (Homo sapiens) [24] = biological target: T1, Tubulin (Homo sapiens); experiment: Binding affinity to microtubule in human HepG2 cells assessed as inhibition of spindle formation after 24 hrs by immunofluorescence staining-based confocal microscopy; format: cell-based
Tubulin (Sus scrofa) [25] = biological target: T2, Tubulin (Sus scrofa); experiment: Inhibition of porcine brain tubulin polymerization preincubated for 5 mins followed by GTP addition measured every 2 mins by spectrophotometry
Tubulin (Homo sapiens) [26] = biological target: T1, Tubulin (Homo sapiens); experiment: Inhibition of microtubule polymerization in human HepG2 cells after 24 hrs by immunofluorescence staining-based confocal microscopy; format: cell-based

Compound: CCOC(=O)CCC(=O)Oc1cc(N(C)c2cc(=O)oc3ccccc23)ccc1OC
- solubility [1]: Insoluble

Compound: COc1cccc2c1C(=O)c1c(O)c3c(c(O)c1C2=O)C[C@@](O)(C(=O)CO)C[C@@H]3O[C@H]1C[C@H](N)[C@H](O)[C@H](C)O1 [DOXORUBICIN HYDROCHLORIDE]
- IC50 (NCI/ADR-RES [2]): 8.15 µM
- inhibition in vivo at 4 mg/kg (NCI/ADR-RES [3]): 33.3%
- Activity [4]: Toxic

Compound: CC/C=C(\C)C(=O)Oc1cc(N(C)c2cc(=O)oc3ccccc23)ccc1OC
- solubility [1]: Soluble
- inhibition of microtubule network formation (active/inactive) (Tubulin (Homo sapiens) [5]): Active
- Activity (Tubulin (Homo sapiens) [6]): Active

Compound: CC/C=C(\C)C(=O)Nc1cc(N(C)c2cc(=O)oc3ccccc23)ccc1OC
- solubility [1]: Insoluble

Compound: CCCCC(=O)Oc1cc(N(C)c2cc(=O)oc3ccccc23)ccc1OC
- solubility [1]: Insoluble

Compound: CCOC(=O)CCC(=O)Nc1cc(N(C)c2cc(=O)oc3ccccc23)ccc1OC
- solubility [1]: Insoluble

Compound: COc1ccc(N(C)c2cc(=O)oc3ccccc23)cc1OC(=O)CC(C)(C)C
- solubility [1]: Insoluble

Compound: CCCCCC(=O)Oc1cc(N(C)c2cc(=O)oc3ccccc23)ccc1OC
- solubility [1]: Insoluble

Compound: C=CCCC(=O)Nc1cc(N(C)c2cc(=O)oc3ccccc23)ccc1OC
- solubility [1]: Soluble
- inhibition of microtubule network formation (active/inactive) (Tubulin (Homo sapiens) [5]): Active
- Activity (Tubulin (Homo sapiens) [6]): Active

Compound: COc1ccc(N(C)c2cc(=O)oc3ccccc23)cc1OCCN1CCOCC1
- IC50 (SK-OV-3): > 5 µM
- IC50 (HCT-116): > 5 µM
- IC50 (HepG2): > 5 µM

Compound: CC(=O)O[C@H]1C(=O)[C@@]2(C)[C@H]([C@H](OC(=O)c3ccccc3)[C@]3(O)C[C@H](OC(=O)[C@H](O)[C@@H](NC(=O)c4ccccc4)c4ccccc4)C(C)=C1C3(C)C)[C@]1(OC(C)=O)CO[C@@H]1C[C@@H]2O [PACLITAXEL]
- inhibition in vivo at 30 mg/kg (A2780/Taxol [7]): 37.7%
- IC50 (NCI/ADR-RES [2]): 9.15 µM
- Activity [8]: Toxic
- Activity [9]: Toxic
- Activity (Tubulin (Homo sapiens) [10]): Active
- IC50 (HCT-8 [11]): 0.189 µM
- Activity [12]: Toxic
- Activity [13]: Toxic
- IC50 (A2780/Taxol [14]): 56.6 µM
- inhibition in vivo at 5 mg/kg (MCF7 [15]): 59.2%

Compound: COC(=O)CCCC(=O)Nc1cc(N(C)c2cc(=O)oc3ccccc23)ccc1OC
- solubility [1]: Soluble
- inhibition of microtubule network formation (active/inactive) (Tubulin (Homo sapiens) [5]): Active
- Activity (Tubulin (Homo sapiens) [6]): Active

Compound: COc1ccc(N(C)c2nc(C)nc3ccccc23)cc1 [VERUBULIN]
- IC50 (SK-OV-3): 0.0032 µM
- Activity [16]: Toxic
- IC50 (HCT-116): 0.0043 µM
- IC50 (HepG2): 0.0046 µM
- inhibition (Tubulin (Sus scrofa) [17]): Active
- Activity [18]: Toxic
- Activity [19]: Toxic
- Activity [20]: Toxic

Compound: CCCCCC(=O)Nc1cc(N(C)c2cc(=O)oc3ccccc23)ccc1OC
- solubility [1]: Insoluble

Compound: COc1cc2c(c(OC)c1OC)-c1ccc(OC)c(=O)cc1[C@@H](NC(C)=O)CC2 [COLCHICINE]
- IC50 (SK-OV-3): 0.0519 µM
- IC50 (HepG2): 0.0428 µM
- IC50 (HCT-8 [11]): 2.43 µM
- IC50 (A2780/Taxol [14]): 8.67 µM

Compound: CCCCCCCCCC(=O)Nc1cc(N(C)c2cc(=O)oc3ccccc23)ccc1OC
- solubility [1]: Insoluble

Compound: CC[C@]1(O)C[C@@H]2CN(CCc3c([nH]c4ccccc34)[C@@](C(=O)OC)(c3cc4c(cc3OC)N(C)[C@H]3[C@@](O)(C(=O)OC)[C@H](OC(C)=O)[C@]5(CC)C=CCN6CC[C@]43[C@@H]65)C2)C1 [VINBLASTINE]
- IC50 (NCI/ADR-RES [2]): 5.85 µM
- IC50 (HCT-8 [11]): 5.21 µM
- IC50 (HCT-8 [21]): 0.0148 µM
- IC50 (MCF7 [22]): 0.0547 µM
- IC50 (A2780/Taxol [14]): 6.9 µM

Compound: COc1ccc(N(C)c2cc(=O)oc3ccccc23)cc1NC(=O)CCCCCl
- Activity [23]: Dose-dependent effect
- inhibition (Tubulin (Homo sapiens) [24]): Dose-dependent effect
- solubility [1]: Soluble
- inhibition of microtubule network formation (active/inactive) (Tubulin (Homo sapiens) [5]): Active
- Activity (Tubulin (Homo sapiens) [6]): Active
- inhibition (Tubulin (Sus scrofa) [25]): Dose-dependent effect
- inhibition (Tubulin (Homo sapiens) [26]): Dose-dependent effect

Compound: C=CCCC(=O)Oc1cc(N(C)c2cc(=O)oc3ccccc23)ccc1OC
- solubility [1]: Insoluble

Compound: CCCCCCCCCC(=O)Oc1cc(N(C)c2cc(=O)oc3ccccc23)ccc1OC
- solubility [1]: Insoluble

Compound: C/C=C/C(=O)Nc1cc(N(C)c2cc(=O)oc3ccccc23)ccc1OC
- solubility [1]: Insoluble

Compound: CCC/C=C/C(=O)Oc1cc(N(C)c2cc(=O)oc3ccccc23)ccc1OC
- solubility [1]: Insoluble

Compound: COc1ccc(N(C)c2cc(=O)oc3ccccc23)cc1OC(=O)CCCCCl
- solubility [1]: Soluble
- inhibition of microtubule network formation (active/inactive) (Tubulin (Homo sapiens) [5]): Active
- Activity (Tubulin (Homo sapiens) [6]): Active

Compound: COC(=O)CCCC(=O)Oc1cc(N(C)c2cc(=O)oc3ccccc23)ccc1OC
- solubility [1]: Soluble
- inhibition of microtubule network formation (active/inactive) (Tubulin (Homo sapiens) [5]): Active
- Activity (Tubulin (Homo sapiens) [6]): Active

Further lines, results first:

- solubility [1]: Insoluble
Compound: C=CC(=O)Oc1cc(N(C)c2cc(=O)oc3ccccc23)ccc1OC

- solubility [1]: Insoluble
Compound: COc1ccc(N(C)c2cc(=O)oc3ccccc23)cc1O

- solubility [1]: Insoluble
Compound: COc1ccc(N(C)c2cc(=O)oc3ccccc23)cc1N

- solubility [1]: Insoluble
Compound: COc1ccc(N(C)c2cc(=O)oc3ccccc23)cc1OC(=O)CCl

- solubility [1]: Insoluble
Compound: CCC(=O)Oc1cc(N(C)c2cc(=O)oc3ccccc23)ccc1OC

- IC50 (SK-OV-3): > 5 µM
- IC50 (HCT-116): > 5 µM
- IC50 (HepG2): > 5 µM
Compound: COc1ccc(-c2ccc(-c3cc(=O)oc4cc(OC)ccc34)s2)cc1

- solubility [1]: Insoluble
Compound: C=C(C)C(=O)Oc1cc(N(C)c2cc(=O)oc3ccccc23)ccc1OC

- IC50 (SK-OV-3): > 5 µM
- IC50 (HCT-116): > 5 µM
- IC50 (HepG2): > 5 µM
Compound: COc1ccc2c(-c3ccc(-c4ccc5c(c4)OCO5)s3)cc(=O)oc2c1

- solubility [1]: Soluble
- inhibition of microtubule network formation (active/inactive) (Tubulin (Homo sapiens) [5]): Active
- Activity (Tubulin (Homo sapiens) [6]): Active
Compound: C/C=C/C(=O)Oc1cc(N(C)c2cc(=O)oc3ccccc23)ccc1OC

- solubility [1]: Insoluble
Compound: COc1ccc(N(C)c2cc(=O)oc3ccccc23)cc1OC(=O)C1CC1

- solubility [1]: Insoluble
Compound: COc1ccc(N(C)c2cc(=O)oc3ccccc23)cc1OC(C)=O

- solubility [1]: Insoluble
Compound: COc1ccc2c(N(C)c3ccc(OC)c(O)c3)cc(=O)oc2c1

- solubility [1]: Insoluble
Compound: COc1ccc(N(C)c2cc(=O)oc3ccccc23)cc1OC(=O)CBr

- solubility [1]: Insoluble
Compound: COc1ccc(N(C)c2cc(=O)oc3ccccc23)cc1OC(=O)C(C)(C)C

- solubility [1]: Insoluble
Compound: COc1ccc(N(C)c2cc(=O)oc3ccccc23)cc1OC(=O)C=C(C)C
